Columns and labels:
[1] = test system: vancomycin-resistant Enterococcus (VRE); assay: agar dilution method, inhibitory effect on VRE; type: cell-based; conditions: for MIC50: Enterococcus, read-out: Minimum inhibitory concentration (MIC50, μg/ml) VRE
Excerpt: (§1) In order to determine the antibacterial activity of these new oxazolidinone-based compounds, an agar dilution method was used to test the inhibitory effect on methicillin-resistant Staphylococcus aureus (MRSA) and vancomycin-resistant Enterococcus (VRE). The bacteria inhibition effect was expressed as minimum inhibitory concentration (MIC50, μg/ml) The test results are shown in the following table.

[2] = test system: methicillin-resistant Staphylococcus aureus (MRSA); assay: agar dilution method, inhibitory effect on MRSA; type: cell-based; conditions: for MIC50: Staphylococcus aureus, read-out: Minimum inhibitory concentration (MIC50, μg/ml) MRSA
Excerpt: as §1

| SMILES | MIC50 [1] [µg/mL] | MIC50 [2] [µg/mL] | Minimum inhibitory concentration (MIC50, μg/ml) VRE [1] [µg/mL] | Minimum inhibitory concentration (MIC50, μg/ml) MRSA [2] [µg/mL] |
| --- | --- | --- | --- | --- |
| CCCn1nnc(-c2ccc(-c3ccc(N4C[C@H](C(O)F)OC4=O)cc3F)cn2)n1.O=P(O)(O)O (stereo partly drawn) [compound 109, (R)-3-(3-fluoro-4-(6-(2-propyl-2H-tetrazol-5-yl)pyridin-3-yl)phenyl)-5-(hydroxyfluoromethyl) oxazolidin-2-one phosphate] | 0.2 | 0.2 | – | – |
| CCn1nnc(-c2ccc(-c3ccc(N4C[C@@H](C(C)O)OC4=O)cc3F)cn2)n1.O=P(O)(O)O (stereo partly drawn) [compound 98, (S)-3-(3-fluoro-4-(6-(2-ethyl-2H-tetrazol-5-yl)pyridin-3-yl)phenyl)-5-(1-hydroxyethyl) oxazolidin-2-one phosphate] | 1.5 | 1.6 | – | – |
| CCC(O)[C@H]1CN(c2ccc(-c3ccc(-c4nnn(C)n4)nc3)c(F)c2)C(=O)O1.O=P(O)(O)O (stereo partly drawn) [compound 89, (R)-3-(3-fluoro-4-(6-(2-methyl-2H-tetrazol-5-yl)pyridin-3-yl)phenyl)-5-(1-hydroxypropyl) oxazolidin-2-one phosphate] | 0.4 | 0.4 | – | – |
| O=C1O[C@@H](C(O)C(F)(F)F)CN1c1ccc(-c2ccc(-c3nnn(C4CC4)n3)nc2)c(F)c1.O=P(O)(O)O (stereo partly drawn) [compound 111, (R)-3-(3-fluoro-4-(6-(2-cyclopropyl-2H-tetrazol-5-yl)pyridin-3-yl)phenyl)-5-(1-hydroxy-2-trifluoroethyl) oxazolidin-2-one phosphate] | – | – | 0.3 | 0.3 |
| O=C1O[C@H](CO)CN1c1ccc(-c2ccc(-c3nnn(C4CC4)n3)nc2)c(F)c1.O=P(O)(O)O [compound 84, (S)-3-(3-fluoro-4-(6-(2-cyclopropyl-2H-tetrazol-5-yl)pyridin-3-yl)phenyl)-5-(hydroxymethyl) oxazolidin-2-one phosphate] | 0.4 | 0.4 | – | – |
| Cn1nnc(-c2ccc(-c3ccc(N4C[C@H](C(O)C(F)F)OC4=O)cc3F)cn2)n1.O=P(O)(O)O (stereo partly drawn) [compound 127, (R)-3-(3-fluoro-4-(6-(2-methyl-2H-tetrazol-5-yl)pyridin-3-yl)phenyl)-5-(1-hydroxy-2-difluoroethyl) oxazolidin-2-one phosphate] | – | – | 0.7 | 0.6 |
| CCCn1nnc(-c2ccc(-c3ccc(N4C[C@H](C(O)C5CC5)OC4=O)cc3F)cn2)n1.O=P(O)(O)O (stereo partly drawn) [compound 143, (R)-3-(3-fluoro-4-(6-(2-propyl-2H-tetrazol-5-yl)pyridin-3-yl)phenyl)-5-(1-hydroxy-1-cyclopropylmethyl) oxazolidin-2-one phosphate] | 0.2 | 0.3 | – | – |
| C=Cn1nnc(-c2ccc(-c3ccc(N4C[C@H](C(O)C5CC5)OC4=O)cc3F)cn2)n1.O=P(O)(O)O (stereo partly drawn) [compound 155, (R)-3-(3-fluoro-4-(6-(2-vinyl-2H-tetrazol-5-yl)pyridin-3-yl)phenyl)-5-(1-hydroxy-1-cyclopropylmethyl) oxazolidin-2-one phosphate] | 0.5 | 0.9 | – | – |
| CCCn1nnc(-c2ccc(-c3ccc(N4C[C@@H](C(O)C(F)(F)F)OC4=O)cc3F)cn2)n1.O=P(O)(O)O (stereo partly drawn) [compound 104, (S)-3-(3-fluoro-4-(6-(2-propyl-2H-tetrazol-5-yl)pyridin-3-yl)phenyl)-5-(1-hydroxy-2-trifluoroethyl) oxazolidin-2-one phosphate] | – | – | 0.5 | 0.5 |
| Cn1nnc(-c2ccc(-c3ccc(N4C[C@H](C(O)F)OC4=O)cc3F)cn2)n1.O=P(O)(O)O (stereo partly drawn) [compound 91, (R)-3-(3-fluoro-4-(6-(2-methyl-2H-tetrazol-5-yl)pyridin-3-yl)phenyl)-5-(hydroxyfluoromethyl) oxazolidin-2-one phosphate] | 1.3 | 1.3 | – | – |
| CCCn1nnc(-c2ccc(-c3ccc(N4C[C@@H](C(O)CF)OC4=O)cc3F)cn2)n1.O=P(O)(O)O (stereo partly drawn) [compound 142, (S)-3-(3-fluoro-4-(6-(2-propyl-2H-tetrazol-5-yl)pyridin-3-yl)phenyl)-5-(1-hydroxy-2-fluoroethyl) oxazolidin-2-one phosphate] | 0.2 | 0.2 | – | – |
| Cn1nnc(-c2ccc(-c3ccc(N4C[C@@H](C(O)C(F)(F)F)OC4=O)cc3F)cn2)n1.O=P(O)(O)O (stereo partly drawn) [compound 94, (S)-3-(3-fluoro-4-(6-(2-methyl-2H-tetrazol-5-yl)pyridin-3-yl)phenyl)-5-(1-hydroxy-2-trifluoroethyl) oxazolidin-2-one phosphate] | – | – | 1.5 | 1.5 |
| CCn1nnc(-c2ccc(-c3ccc(N4C[C@H](C(O)F)OC4=O)cc3F)cn2)n1.O=P(O)(O)O (stereo partly drawn) [compound 101, (R)-3-(3-fluoro-4-(6-(2-ethyl-2H-tetrazol-5-yl)pyridin-3-yl)phenyl)-5-(hydroxyfluoromethyl) oxazolidin-2-one phosphate] | 0.4 | 0.4 | – | – |
| CC(O)[C@@H]1CN(c2ccc(-c3ccc(-c4nnn(C5CC5)n4)nc3)c(F)c2)C(=O)O1.O=P(O)(O)O (stereo partly drawn) [compound 114, (S)-3-(3-fluoro-4-(6-(2-cyclopropyl-2H-tetrazol-5-yl)pyridin-3-yl)phenyl)-5-(1-hydroxyethyl) oxazolidin-2-one phosphate] | 0.3 | 0.3 | – | – |
| CCn1nnc(-c2ccc(-c3ccc(N4C[C@H](C(C)O)OC4=O)cc3F)cn2)n1.O=P(O)(O)O (stereo partly drawn) [compound 97, (R)-3-(3-fluoro-4-(6-(2-ethyl-2H-tetrazol-5-yl)pyridin-3-yl)phenyl)-5-(1-hydroxyethyl) oxazolidin-2-one phosphate] | 1.1 | 1.1 | – | – |
| CCC(O)[C@H]1CN(c2ccc(-c3ccc(-c4nnn(CC)n4)nc3)c(F)c2)C(=O)O1.O=P(O)(O)O (stereo partly drawn) [compound 99, (R)-3-(3-fluoro-4-(6-(2-ethyl-2H-tetrazol-5-yl)pyridin-3-yl)phenyl)-5-(1-hydroxypropyl) oxazolidin-2-one phosphate] | 0.2 | 0.2 | – | – |
| O=C1O[C@@H](C(O)C(F)F)CN1c1ccc(-c2ccc(-c3nnn(C4CC4)n3)nc2)c(F)c1.O=P(O)(O)O (stereo partly drawn) [compound 145, (R)-3-(3-fluoro-4-(6-(2-cyclopropyl-2H-tetrazol-5-yl)pyridin-3-yl)phenyl)-5-(1-hydroxy-2-difluoroethyl) oxazolidin-2-one phosphate] | – | – | 0.5 | 0.6 |
| CCCn1nnc(-c2ccc(-c3ccc(N4C[C@H](C(OP(=O)(O)O)C(F)F)OC4=O)cc3F)cn2)n1 (stereo partly drawn) [compound 139, (R)-3-(3-fluoro-4-(6-(2-propyl-2H-tetrazol-5-yl)pyridin-3-yl)phenyl)-5-(1-hydroxy-2-difluoroethyl) oxazolidin-2-one phosphate] | – | – | 0.9 | 0.8 |
| O=C1O[C@H](C(O)C2CC2)CN1c1ccc(-c2ccc(-c3nnn(C4CC4)n3)nc2)c(F)c1.O=P(O)(O)O (stereo partly drawn) [compound 150, (S)-3-(3-fluoro-4-(6-(2-cyclopropyl-2H-tetrazol-5-yl)pyridin-3-yl)phenyl)-5-(1-hydroxy-1-cyclopropylmethyl) oxazolidin-2-one phosphate] | 0.2 | 0.2 | – | – |
| Cn1nnc(-c2ccc(-c3ccc(N4C[C@@H](C(O)CF)OC4=O)cc3F)cn2)n1.O=P(O)(O)O (stereo partly drawn) [compound 130, (S)-3-(3-fluoro-4-(6-(2-methyl-2H-tetrazol-5-yl)pyridin-3-yl)phenyl)-5-(1-hydroxy-2-fluoroethyl) oxazolidin-2-one phosphate] | 0.2 | 0.2 | – | – |
| CCn1nnc(-c2ccc(-c3ccc(N4C[C@H](C(O)C(F)(F)F)OC4=O)cc3F)cn2)n1.O=P(O)(O)O (stereo partly drawn) [compound 95, (R)-3-(3-fluoro-4-(6-(2-ethyl-2H-tetrazol-5-yl)pyridin-3-yl)phenyl)-5-(1-hydroxy-2-trifluoroethyl) oxazolidin-2-one phosphate] | – | – | 0.3 | 0.3 |
| CCn1nnc(-c2ccc(-c3ccc(N4C[C@@H](C(O)C(F)F)OC4=O)cc3F)cn2)n1.O=P(O)(O)O (stereo partly drawn) [compound 134, (S)-3-(3-fluoro-4-(6-(2-ethyl-2H-tetrazol-5-yl)pyridin-3-yl)phenyl)-5-(1-hydroxy-2-difluoroethyl) oxazolidin-2-one phosphate] | – | – | 0.5 | 0.5 |
| CC(O)[C@@H]1CN(c2ccc(-c3ccc(-c4nnn(C)n4)nc3)c(F)c2)C(=O)O1.O=P(O)(O)O (stereo partly drawn) [compound 88, (S)-3-(3-fluoro-4-(6-(2-methyl-2H-tetrazol-5-yl)pyridin-3-yl)phenyl)-5-(1-hydroxyethyl) oxazolidin-2-one phosphate] | 0.5 | 0.5 | – | – |
| C=Cn1nnc(-c2ccc(-c3ccc(N4C[C@H](C(O)CF)OC4=O)cc3F)cn2)n1.O=P(O)(O)O (stereo partly drawn) [compound 153, (R)-3-(3-fluoro-4-(6-(2-vinyl-2H-tetrazol-5-yl)pyridin-3-yl)phenyl)-5-(1-hydroxy-2-fluoroethyl) oxazolidin-2-one phosphate] | 0.1 | 0.2 | – | – |
| CCCn1nnc(-c2ccc(-c3ccc(N4C[C@@H](C(O)F)OC4=O)cc3F)cn2)n1.O=P(O)(O)O (stereo partly drawn) [compound 110, (S)-3-(3-fluoro-4-(6-(2-propyl-2H-tetrazol-5-yl)pyridin-3-yl)phenyl)-5-(hydroxyfluoromethyl) oxazolidin-2-one phosphate] | 0.2 | 0.2 | – | – |
| CCC(OP(=O)(O)O)[C@H]1CN(c2ccc(-c3ccc(-c4nnn(C5CC5)n4)nc3)c(F)c2)C(=O)O1 (stereo partly drawn) [compound 115, (R)-3-(3-fluoro-4-(6-(2-cyclopropyl-2H-tetrazol-5-yl)pyridin-3-yl)phenyl)-5-(1-hydroxypropyl)) oxazolidin-2-one phosphate] | – | – | 0.5 | 0.5 |

— patent publication US12173020B2, “New-type oxazolidinone compounds and preparation method therefor” (priority 2019, dated 2024)
